Laboratory results as given in ChEMBL document CHEMBL1147166, “Structure-activity relationships of methoctramine-related polyamines as muscarinic antagonist: effect of replacing the inner polymethylene chain with cyclic moieties” (Bioorg Med Chem, 2007).
Active and inactive are the calls of the source. The calls are words filed in the database; no cut-off is given here.

Tests used:
Mus musculus [1] = assay: Antinociceptive activity in mouse assessed as licking latency at 1.0 ug, icv after 60 mins by hot plate method; type: functional
Mus musculus [2] = assay: Antinociceptive activity in mouse assessed as licking latency at 0.1 ug, icv after 30 mins by hot plate method; type: functional
Cholinesterase = Cholinesterase (Homo sapiens, UniProt P06276); assay: Inhibition of human serum recombinant BChE after 20 mins
Cholinesterase, sequence (P06276 whole entry): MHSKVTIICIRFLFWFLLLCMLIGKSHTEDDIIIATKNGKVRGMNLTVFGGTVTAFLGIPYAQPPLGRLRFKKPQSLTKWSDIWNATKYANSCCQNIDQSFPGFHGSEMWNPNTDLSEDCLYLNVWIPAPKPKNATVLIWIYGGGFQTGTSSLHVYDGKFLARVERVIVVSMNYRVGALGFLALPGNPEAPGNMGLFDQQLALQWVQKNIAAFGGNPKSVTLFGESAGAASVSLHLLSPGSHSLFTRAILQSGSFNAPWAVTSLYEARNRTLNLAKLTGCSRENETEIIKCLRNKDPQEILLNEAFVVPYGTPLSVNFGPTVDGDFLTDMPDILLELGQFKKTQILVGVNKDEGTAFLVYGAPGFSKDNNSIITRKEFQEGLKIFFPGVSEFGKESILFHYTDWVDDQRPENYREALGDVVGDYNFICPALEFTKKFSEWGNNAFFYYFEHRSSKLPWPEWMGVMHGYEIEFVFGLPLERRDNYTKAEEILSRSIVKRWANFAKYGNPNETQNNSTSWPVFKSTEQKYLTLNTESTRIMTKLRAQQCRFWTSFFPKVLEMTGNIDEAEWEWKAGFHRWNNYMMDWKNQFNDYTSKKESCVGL

[3] = target: Muscarinic acetylcholine receptor M3 (Homo sapiens, UniProt P20309); assay: Displacement of [3H] N-methyl-scopolamine chloride from human muscarinic receptor M3 expressed in CHO cells; type: cell-based
Muscarinic acetylcholine receptor M3, sequence (P20309 whole entry): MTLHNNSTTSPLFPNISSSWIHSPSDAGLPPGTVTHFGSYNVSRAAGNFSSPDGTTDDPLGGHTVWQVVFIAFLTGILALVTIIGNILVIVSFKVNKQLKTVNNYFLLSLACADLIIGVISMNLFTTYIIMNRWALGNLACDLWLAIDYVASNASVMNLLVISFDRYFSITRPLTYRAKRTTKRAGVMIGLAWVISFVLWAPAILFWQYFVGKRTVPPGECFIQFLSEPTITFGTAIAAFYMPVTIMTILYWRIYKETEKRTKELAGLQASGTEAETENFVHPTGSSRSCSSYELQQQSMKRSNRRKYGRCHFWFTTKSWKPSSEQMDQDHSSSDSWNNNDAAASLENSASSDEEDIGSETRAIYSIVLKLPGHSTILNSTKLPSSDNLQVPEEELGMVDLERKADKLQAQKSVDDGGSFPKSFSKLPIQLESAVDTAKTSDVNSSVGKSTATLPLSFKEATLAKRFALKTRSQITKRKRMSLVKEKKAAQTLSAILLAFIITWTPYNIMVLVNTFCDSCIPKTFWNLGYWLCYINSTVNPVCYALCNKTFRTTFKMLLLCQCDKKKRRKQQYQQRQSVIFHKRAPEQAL

Mus musculus [4] = assay: Antinociceptive activity in mouse assessed as licking latency at 0.01 ug, icv after 15 mins by hot plate method; type: functional
Mus musculus [5] = assay: Antinociceptive activity in mouse assessed as licking latency at 1.0 ug, icv after 15 mins by hot plate method; type: functional
Mus musculus [6] = assay: Antinociceptive activity in mouse assessed as licking latency at 0.03 ug, icv after 30 mins by hot plate method; type: functional
Mus musculus [7] = assay: Antinociceptive activity in mouse assessed as licking latency at 0.01 ug, icv after 45 mins by hot plate method; type: functional
Mus musculus [8] = assay: Antinociceptive activity in mouse assessed as licking latency at 1.0 ug, icv after 45 mins by hot plate method; type: functional
Mus musculus [9] = assay: Antinociceptive activity in mouse assessed as licking latency at 0.01 ug, icv after 60 mins by hot plate method; type: functional
Mus musculus [10] = assay: Antinociceptive activity in mouse assessed as licking latency at 0.03 ug, icv after 45 mins by hot plate method; type: functional
Mus musculus [11] = assay: Antinociceptive activity in mouse assessed as licking latency at 0.3 ug, icv after 45 mins by hot plate method; type: functional
Mus musculus [12] = assay: Antinociceptive activity in mouse assessed as licking latency at 0.3 ug, icv after 60 mins by hot plate method; type: functional
Mus musculus [13] = assay: Antinociceptive activity in mouse assessed as licking latency at 10 ug, icv after 60 mins by hot plate method; type: functional
Rattus norvegicus = organism: Rattus norvegicus; assay: Increase in Ach release in rat parietal cortex by cerebral microdialysis test; type: functional

SMILES: COc1ccccc1CNCCCCCCN1CCC(CCC2CCN(CCCCCCNCc3ccccc3OC)CC2)CC1
- Time (Mus musculus [1]): 19.5 s
- Time (Mus musculus [2]): 24.5 s
- IC50 (Cholinesterase): 10.5 µM
- Ki [3]: 0.214 µM
- Time (Mus musculus [4]): 15.9 s
- Time (Mus musculus [5]): 19.3 s
- Time (Mus musculus [6]): 19.4 s
- Time (Mus musculus [7]): 18.6 s
- Time (Mus musculus [8]): 18.5 s
- Time (Mus musculus [9]): 14.2 s
- Time (Mus musculus [10]): 18.3 s
- Time (Mus musculus [11]): 20.1 s
- Time (Mus musculus [12]): 15.7 s
- Time (Mus musculus [13]): 18.3 s
- Activity (Rattus norvegicus): Active
